Series [1] deals with T1, Mdm2 (1-125) (Homo sapiens, UniProt Q00987).
T1 construct: Purified MDM2 (1-125) protein was titrated against 50 nM carboxyfluorescein (FAM)-labeled; GST (N, cleaved yes); made in house; host or cells: E. coli BL21 DE3 (pGEX-6P-1)
Kind of series: Mdm2 competitive fluorescence anisotropy assay (FAM-labeled 12/1 peptide displacement). It is filed as binding.

For series [2], the system named is T22 p53 reporter cells. Put plainly: p53 gene reporter assay (β-galactosidase) in T22 cells. It is filed as cell-based, murine. The settings on record: 18 h, 1% DMSO, normalised to 25 µM Nutlin, 4 parameter fit to 10 point titration. Background: A reporter such as luciferase makes a cellular process visible.
Method: T22 cells, which were stably transfected with a p53 responsive β-galactosidase reporter, were seeded into a 96-well plate at a cell density of 8000 cells per well. Cells were also maintained in Dulbecco’s Minimal Eagle Medium (DMEM) with 10% fetal calf serum (FCS) and 1% (v/v) penicillin/streptomycin. The cells were incubated for 24 hours and followed by cell media removal and replacement with 90 µl of fresh DMEM either containing 10% FCS or 0% FCS. 10 µl of each compound was then added directly to each well and incubated for 18 hours. Final working concentration of DMSO was 1% v/v. […] Measurements were carried out using an Envision multiplate reader (Perkin-Elmer). […] This was then used to normalize the experimental results.
Series [3] deals with T22 cells. Kind of series: Lactate dehydrogenase (LDH) release assay in T22 cells. The settings on record: for LDH Release (T22 Cells), 0% FCS (LDH50) / LDH Release (T22 Cells), 10% FCS (LDH50): 2 h treatment, normalised to 0.1% Triton X-100 lysis, 4 parameter fit to 10 point titration. It is filed as cell-based, murine. The procedure: (§1) T22 cells or HEK 293 cells were seeded into a 96-well plate at a cell density of 5000 cells per well. Cells were maintained in Dulbecco’s Minimal Eagle Medium (DMEM) with 10% fetal bovine serum (FBS) and 1% (v/v) penicillin/streptomycin. The cells were incubated for 24 hours followed by cell media removal and addition of 90 µl of DMEM either with or without 10% FCS. Cells were then treated with compounds/peptide for 2 hours in DMEM with or without 10% FBS. Final working concentration of DMSO was 1% v/v. Corresponding negative control wells with 1% DMSO only were also prepared. Cytosolic lactate dehydrogenase release was detected using the cytoTox 96® non-radioactive cytotoxicity Assay kit (Promega) as per manufacturer’s instructions. Measurements were carried out using an Envision multiplate reader (Perkin-Elmer). Maximum LDH release was defined as the amount of LDH released when cells were lysed in the presence of 0.1% TRITON X-100 and was used to normalize the results.

Series [4] concerns the target T2, Mdm2:p53 complex (Homo sapiens, UniProt Q00987).
T2 construct: host or cells: HEK293
Kind of series: NanoBRET Mdm2:p53 live cell assay. The settings on record: HEK293 cells, 0% FCS versus 10% FCS. It is filed as cell-based. The method, then: all competitive types of experiments, it is assumed that [P]t > [L]st, otherwise considerable amounts of free labeled ligand would always be present and would interfere with measurements. Kd1 is the […]
experimentally determined as described in the previous paragraph. The FAM-labeled peptide was dissolved in dimethyl sulfoxide (DMSO) at 1 mM and diluted into experimental buffer. Readings were carried out with an Envision Multilabel Reader (PerkinElmer). Experiments were carried out […]
Tween 20 buffer. All titrations were carried out in triplicate. Curve-fitting was carried out using […]
Negative control titrations of the ligands under investigation were also carried out with the fluorescently labeled peptide (in the absence of MDM2) to ensure no interactions were occurring between the ligands and FAM-labeled peptide. […]
which would otherwise indicate an unintended interaction between the ligand and the FAM-labeled peptide to be displaced from the MDM2 binding site.
Nanobret Mdm2:p53 Cell Based Assay
HEK293 cells were seeded at a cell density of 250,000 cells per well into a 6 well plate and incubated overnight at 37 °C and 5% CO2 in DMEM with 0.3 mg/ml glutamine, 100 IU/ml penicillin, 100 μg/ml streptomycin and 10% fetal calf serum. Each well was transfected with a […]
For orientation: BRET reads energy transfer from a luciferase to a nearby fluorophore.

Series [5] deals with HEK293 cells. Kind of series: Lactate dehydrogenase (LDH) release assay in HEK293 cells. The settings on record: 2 hour treatment, 12.5, 25 and 50 µM, normalised to 0.1% Triton X100 (Figure S1); for LDH release in HEK293 cells, absence of serum (in words): 0% FCS; for LDH release in HEK293 cells, high serum conditions (in words): 10% FCS. It is filed as cell-based. The procedure:
as §1, with “results. […]” for “results.”
to induce LDH release in HEK293 cells after a 2 hour treatment period in A) the absence of FCS and B) the presence of 10% FCS. Compounds were tested at concentrations of 12.5 µM, 25 µM and 50 µM. Results were normalized to maximal LDH release as measured by treatment with 0.1% Triton X100.
(1 picture or pasted object on this page, not shown here)
For orientation: LDH in the medium is a marker of cell lysis.

The values below come from paper PMC5431883, “Enhancing Specific Disruption of Intracellular Protein Complexes by Hydrocarbon Stapled Peptides Using Lipid Based Delivery” (Scientific Reports, 2017).

Entries after “also recorded” stand apart in the source; their conditions may differ. Read-outs that look alike come from different tables or passages of the source. Positions of bridges follow the written chain, without caps; N, C: chain ends. Non-standard residues stand in square brackets, D forms with d. Residues, ends and D or L forms follow the SMILES beside them. R8 = C=CCCCCCC[C@@](C)(N)C(=O)O; S5 = C=CCCC[C@](C)(N)C(=O)O; Ahx = NCCCCCC(=O)O

The Kd is the free concentration of one partner at which half of the binding sites on the other are occupied at equilibrium, for simple one-to-one binding.

T2 sequence (Q00987 whole entry, one chain of several): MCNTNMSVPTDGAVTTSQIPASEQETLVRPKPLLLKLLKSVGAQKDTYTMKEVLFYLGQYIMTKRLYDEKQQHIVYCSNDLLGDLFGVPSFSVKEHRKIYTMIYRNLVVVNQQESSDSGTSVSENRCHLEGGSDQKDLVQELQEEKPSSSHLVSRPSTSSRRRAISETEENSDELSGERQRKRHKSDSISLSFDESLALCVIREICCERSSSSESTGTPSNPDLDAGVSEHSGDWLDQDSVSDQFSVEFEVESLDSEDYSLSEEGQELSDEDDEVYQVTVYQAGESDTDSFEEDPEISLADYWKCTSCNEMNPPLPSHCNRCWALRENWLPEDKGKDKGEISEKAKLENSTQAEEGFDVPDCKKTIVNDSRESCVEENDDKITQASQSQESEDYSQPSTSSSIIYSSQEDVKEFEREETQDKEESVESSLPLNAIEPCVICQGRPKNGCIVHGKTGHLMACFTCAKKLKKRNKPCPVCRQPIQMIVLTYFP
T1 sequence (Q00987 1-125): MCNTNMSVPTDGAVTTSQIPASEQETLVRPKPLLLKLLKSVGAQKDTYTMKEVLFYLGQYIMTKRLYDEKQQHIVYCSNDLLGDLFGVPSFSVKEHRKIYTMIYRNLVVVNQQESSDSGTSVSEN

On to `CC(=O)N[C@@H](CCCCN)C(=O)N[C@@H](CCCCN)C(=O)NCCCCCC(=O)N[C@H](C(=O)N[C@@H](CO)C(=O)N[C@@H](Cc1ccccc1)C(=O)N[C@]1(C)CCCCCCC=CCCC[C@@](C)(C(=O)N[C@@H](CCC(=O)O)C(=O)N[C@@H](CC(N)=O)C(=O)N[C@@H](Cc2ccccc2)C(N)=O)NC(=O)[C@H](CC(C)C)NC(=O)[C@H](CC(C)C)NC(=O)[C@H](C)NC(=O)[C@H](Cc2c[nH]c3ccccc23)NC(=O)[C@H](Cc2ccc(O)cc2)NC(=O)[C@H](CCC(=O)O)NC1=O)[C@@H](C)O` [VIP-82] (Ac-KK[Ahx]TSF[R8]EYWALL[S5]ENF-NH2; staple 7-14), for which the “improvement in affinity for Mdm2 over the library template sequence (sMTIDE-02)” value in series [1] was determined as 2 fold. Also, the Kd in series [1] (competitive fluorescence anisotropy, text refers to Table S1, read-out: Kd for binding to Mdm2 (as quoted in the text from Table S1)) was 24.4 ± 2.3 nM. Further, in series [2] (0% FCS, read-out: P53 Activation (T22 Cells), 0% FCS (p53ACT50 / EC50)), the EC50 is 800 ± 100 nM. The EC50 in series [2] (read-out: P53 Activation (T22 Cells), 10% FCS (p53ACT50 / EC50), 10% FCS) was found to be 10000 ± 100 nM. For the same molecule, in series [3], the “LDH Release (T22 Cells), 0% FCS (LDH50)” value is “did not cause any measurable LDH release; also recorded: No release” and the “LDH Release (T22 Cells), 10% FCS (LDH50)” value is listed as “No release”. Moreover, the “improvement of NanoBRET IC50 in serum free conditions over high serum conditions” value in series [4] worked out at 4.5 fold. Further, in series [5], the “LDH release in HEK293 cells, absence of serum (in words)” value was “remained inert” and the “LDH release in HEK293 cells, high serum conditions (in words)” value is reported as “absence of LDH release”.

Take `CC(=O)N[C@H](C(=O)N[C@@H](CO)C(=O)N[C@@H](Cc1ccccc1)C(=O)N[C@]1(C)CCCCCCC=CCCC[C@@](C)(C(N)=O)NC(=O)[C@H](CC(C)C)NC(=O)[C@H](CC(C)C)NC(=O)[C@H](C)NC(=O)[C@H](Cc2c[nH]c3ccccc23)NC(=O)[C@H](Cc2ccc(O)cc2)NC(=O)[C@H](CCC(=O)O)NC1=O)[C@@H](C)O` [sMTIDE-02]: in series [3], the “LDH Release (T22 Cells), 0% FCS (LDH50)” value is recorded as 50.5 ± 1.7 µM and the “LDH Release (T22 Cells), 10% FCS (LDH50)” value is recorded as “No release”. Besides, the “cytotoxicity (LDH leakage) in the library screen, absence of serum (in words)” value in series [3] (absence of serum, within 2 hours after treatment) is recorded as “induced LDH leakage”. Moreover, in series [4], the “improvement of NanoBRET IC50 in serum free conditions over high serum conditions” value was determined as 9 fold. Also, in series [5], the “LDH release in HEK293 cells, absence of serum (in words)” value is “induced significant amounts of LDH release” and the “LDH release in HEK293 cells, high serum conditions (in words)” value was “absence of LDH release”.
